Three compounds from US10604554B2, “Double-acylated GLP-1 derivatives” (Novo Nordisk A/S, priority 2012, dated 2020) can be followed below.

pEC50: −log10 of the molar value. Numbered stars: 1 amine (or outer) side, 2 acyl side, 3 side chain; on linkers, the order of the positions; unused ones are H or OH. Square brackets hold non-standard residues; d marks the D form. Side chains are listed from the residue outwards. Peptide text beside a SMILES is read from it. * marks the point of attachment. Decanoyl(10-(4-HOOC-PhO)) = O=C(O)c1ccc(OCCCCCCCCCC(=O)*)cc1; γGlu = O=C(O)[C@H](CCC(=O)[*:2])N[*:1]; εLys = N[C@@H](CCCCN[*:1])C(=O)[*:2]; AEEA = NCCOCCOCC(=O)O; Aib = CC(C)(N)C(=O)O

Data set [1] is described as follows: Pharmacokinetic (PK) study in minipig. The following applies: male, Göttingen, in vivo, iv.
Experimental: The purpose of this study is to determine the protraction in vivo of the GLP-1 derivatives after i.v. administration to minipigs, i.e. the prolongation of their time of action. This is done in a pharmacokinetic (PK) study, where the terminal half-life of the derivative in question is determined. By terminal half-life is generally meant the period of time it takes to halve a certain plasma concentration, measured after the initial distribution phase.
Study A: Male Göttingen minipigs were obtained from Ellegaard Göttingen Minipigs (Dalmose, Denmark) approximately 7-14 months of age and weighing from approximately 16-35 kg were used in the studies. The minipigs were housed individually and fed restrictedly once or twice daily with SDS minipig diet (Special Diets Services, Essex, UK). After at least 2 weeks of acclimatisation two permanent central venous catheters were implanted in vena cava caudalis or cranialis in each animal. The animals were allowed 1 week recovery after the surgery, and were then used for repeated pharmacokinetic studies with a suitable wash-out period between successive GLP-1 derivative dosings.
The animals were fasted for approximately 18 h before dosing and from 0 to 4 h after dosing, but had ad libitum access to water during the whole period.
The GLP-1 derivatives were dissolved in 50 mM sodium phosphate, 145 mM sodium chloride, 0.05% tween 80, pH 7.4 to a concentration of usually from 20-60 nmol/ml. […] Blood samples (for example 0.8 ml) were collected in EDTA buffer (8 mM) and then centrifuged at 4° C. and 1942 G for 10 minutes.
Study B: Male Göttingen minipigs were obtained from Ellegaard Göttingen Minipigs (Dalmose, Denmark) approximately 5 months of age and weighing from approximately 9 kg were used in the studies. The minipigs were housed in pens with straw as bedding, six together in each pen and fed restrictedly once or twice daily with Altromin 9023 minipig diet (Chr. Petersen A/S, DK-4100 Ringsted) or Standard SMP(E) minipig diet (Special Diet Services (SDS), UK). The pigs were used for repeated pharmacokinetic studies with a suitable wash-out period between successive GLP-1 derivative dosings.
The GLP-1 derivatives were dissolved in 50 mM sodium phosphate, 145 mM sodium chloride, 0.05% tween 80, pH 7.4 to a concentration of usually from 20-60 nmol/ml. Intravenous injections (the volume corresponding to usually 2 nmol/kg, for example 0.1 ml/kg) of the compounds were given as intravenous injections via a Venflon inserted in an ear vein, while they are placed unanaesthetised in a sling. The dose volume was 0.1 ml/kg, and blood was sampled at predefined time points for up till 17 days post dosing (samples was taken with syringe from a jugular vein).
Individual plasma concentration-time profiles were analyzed by a non-compartmental model in Phoenix WinNonLin ver. […] (Pharsight Inc., Mountain View, Calif., USA), and the resulting terminal half-lives (harmonic mean) determined.
Data set [2] in a line: Pharmacokinetic (PK) study in rat. The settings on record: male, Sprague Dawley, in vivo, iv, 6 nmol/kg.
Experimental: The purpose of this Example is to investigate half-life in vivo in rat.
In vivo pharmacokinetic studies in rats were performed with the GLP-1 derivatives of a number of the Example compounds, as described in the following.
Male Sprague Dawley rats of same age with a body weight of approximately 400 g were obtained from Taconic (Denmark) and assigned to the treatments by simple randomisation on body weight, approximately 4 rats per group.
The GLP-1 derivatives (approximately 6 nmol/ml) were dissolved in 50 mM sodium phosphate, 145 mM sodium chloride, 0.05% tween 80, pH 7.4. Intravenous injections (1.0 ml/kg) of the compounds were given with a syringe in the tail vein of conscious rats. Blood was sampled from vena sublingualis for 5 days post dosing. Blood samples (200 μl) were collected in EDTA buffer (8 mM) and then centrifuged at 4° C. and 10000 G for 5 minutes. Plasma samples were kept at −20° C. until analyzed for plasma concentration of the respective GLP-1 compound.
The donor beads were coated with streptavidin, while acceptor beads were conjugated with a monoclonal antibody recognising a mid-/C-terminal epitope of the peptide. Another monoclonal antibody, specific for the N-terminus, was biotinylated. The three reactants were combined with the analyte and formed a two-sited immuno-complex. Illumination of the complex released singlet oxygen atoms from the donor beads, which were channeled into the acceptor beads and triggered chemiluminescence which was measured in an Envision plate reader. The amount of light was proportional to the concentration of the compound.
Plasma concentration-time profiles were analyzed using Phoenix WinNonLin ver. 6.2, Pharsight Inc., Mountain View, Calif., USA), and the half-life (T1/2) calculated using individual plasma concentration-time profiles from each animal.
A further data set has as its target T1, human GLP-1 receptor (Homo sapiens, UniProt P43220).
T1 construct: expressed in transfected cells; host or cells: BHK cells, clone FCW467-12A/KZ10-1 (parent line BHKTS13), further transfected with CRE luciferase
The experiment in a line: In vitro potency (AlphaScreen cAMP, membranes). The format is biochemical. As to the method:
The purpose of this example is to test the activity, or potency, of the GLP-1 derivatives in vitro.
Purified plasma membranes from a stable transfected cell line, BHK467-12A (tk-ts13), expressing the human GLP-1 receptor were stimulated with the GLP-1 analogue or derivative in question, and the potency of cAMP production was measured using the AlphaScreen™ cAMP Assay Kit from Perkin Elmer Life Sciences. The basic principle of the AlphaScreen Assay is a competition between endogenous cAMP and exogenously added biotin-cAMP. The capture of cAMP is achieved by using a specific antibody conjugated to acceptor beads.
A stable transfected cell line and a high expressing clone were selected for screening. The cells were grown at 5% CO2 in DMEM, 5% FCS, 1% Pen/Strep (Penicillin/Streptomycin) and 0.5 mg/ml of the selection marker G418.
Cells at approximately 80% confluence were washed 2× with PBS and harvested with Versene (aqueous solution of the tetrasodium salt of ethylenediaminetetraacetic acid), centrifuged 5 min at 1000 rpm and the supernatant removed. The additional steps were all performed on ice. The cell pellet was homogenised by the Ultrathurax for 20-30 s in 10 ml of Buffer 1 (20 mM Na-HEPES, 10 mM EDTA, pH=7.4), centrifuged 15 min at 20,000 rpm and the pellet resuspended in 10 ml of Buffer 2 (20 mM Na-HEPES, 0.1 mM EDTA, pH=7.4). The suspension was homogenised for 20-30 s and centrifuged 15 min at 20,000 rpm. Suspension in Buffer 2, homogenisation and centrifugation was repeated once and the membranes were resuspended in Buffer 2. The protein concentration was determined and the membranes stored at −80° C. until use.
The assay was performed in flat-bottom 96-well plates (Costar cat. no:3693). The final volume per well was 50 μl.
AlphaScreen cAMP Assay Kit from Perkin Elmer Life Sciences (cat. No: 6760625M); containing Anti-cAMP Acceptor beads (10 U/μl), Streptavidin Donor beads (10 U/μl) and Biotinylated-cAMP (133 U/μl).
AlphaScreen Buffer, pH=7.4: 50 mM TRIS-HCl (Sigma, cat.no: T3253); 5 mM HEPES (Sigma, cat.no: H3375); 10 mM MgCl2, 6H2O (Merck, cat.no: 5833); 150 mM NaCl (Sigma, cat.no: S9625); 0.01% Tween (Merck, cat.no: 822184). The following was added to the AlphaScreen Buffer prior to use (final concentrations indicated): BSA (Sigma, cat. no. A7906): 0.1%; IBMX (Sigma, cat. no. 15879): 0.5 mM; ATP (Sigma, cat. no. A7699): 1 mM; GTP (Sigma, cat. no. G8877): 1 uM.
cAMP standard (dilution factor in assay=5): cAMP Solution: 5 μL of a 5 mM cAMP-stock+495 μL AlphaScreen Buffer.
Membranes were prepared from hGLP-1/BHK 467-12A cells with a concentration of 6 μg/well corresponding to 0.6 mg/ml (the amount of membranes used pr. well may vary)
“No membranes”: Acceptor Beads (15 μg/ml final) in AlphaScreen buffer
“6 μg/well membranes”: membranes+Acceptor Beads (15 μg/ml final) in AlphaScreen buffer
An aliquot (10 μl) of “No membranes” was added to the cAMP standard (per well in duplicate wells) and the positive and negative controls
An aliquot (10 μl) of “6 μg/well membranes” was added to GLP-1 and analogues (per well in duplicate or triplicate wells)
Pos. Control: 10 μl “no membranes”+10 μl AlphaScreen Buffer
Neg. Control: 10 μl “no membranes”+10 μl cAMP Stock Solution (50 μM)
As the beads are sensitive to direct light, any handling was in the dark (as dark as possible), or in green light. All dilutions were made on ice.
1. Make the AlphaScreen Buffer.
2. Dissolve and dilute the GLP-1/Analogues/cAMP standard in AlphaScreen Buffer.
3. Make the Donor Beads Solution by mixing streptavidin donor beads (2 units/well) and biotinylated cAMP (1.2 units/well) and incubate 20-30 min in the dark at room temperature
4. Add the cAMP/GLP-1/Analogues to the plate: 10 μl per well.
5. Prepare membrane/Acceptor Beads solution and add this to the plates: 10 μl per well.
6. Add the Donor Beads: 30 μl per well.
7. Wrap the plate in aluminum foil and incubate on the shaker for 3 hours (very slowly) at RT.

T1 sequence (P43220 24-463): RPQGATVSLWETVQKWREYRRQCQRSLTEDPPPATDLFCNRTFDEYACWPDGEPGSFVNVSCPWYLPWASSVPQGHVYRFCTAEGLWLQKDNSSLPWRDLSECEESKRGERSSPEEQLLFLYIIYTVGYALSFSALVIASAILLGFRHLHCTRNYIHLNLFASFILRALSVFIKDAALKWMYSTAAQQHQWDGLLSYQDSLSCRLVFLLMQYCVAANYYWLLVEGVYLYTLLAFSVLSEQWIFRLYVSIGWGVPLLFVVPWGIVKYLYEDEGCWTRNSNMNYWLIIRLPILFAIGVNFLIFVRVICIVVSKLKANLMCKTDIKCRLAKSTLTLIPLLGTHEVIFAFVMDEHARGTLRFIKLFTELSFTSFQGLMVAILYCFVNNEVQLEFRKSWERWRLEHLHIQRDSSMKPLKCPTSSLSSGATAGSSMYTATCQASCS

In the case of `CC[C@H](C)[C@H](NC(=O)[C@H](Cc1ccccc1)NC(=O)[C@H](CCC(=O)O)NC(=O)[C@H](CCCCNC(=O)[C@@H](N)CCCCNC(=O)[C@@H](N)CCCCNC(=O)CC[C@H](NC(=O)CCCCCCCCCCOc1ccc(C(=O)O)cc1)C(=O)O)NC(=O)[C@H](C)NC(=O)[C@H](C)NC(=O)[C@H](CCC(N)=O)NC(=O)CNC(=O)[C@H](CCC(=O)O)NC(=O)[C@H](CC(C)C)NC(=O)[C@H](Cc1ccc(O)cc1)NC(=O)[C@H](CO)NC(=O)[C@H](CO)NC(=O)[C@@H](NC(=O)[C@H](CC(=O)O)NC(=O)[C@H](CO)NC(=O)[C@@H](NC(=O)[C@H](Cc1ccccc1)NC(=O)[C@@H](NC(=O)CNC(=O)[C@H](CCC(=O)O)NC(=O)C(C)(C)NC(=O)[C@@H](N)Cc1c[nH]cn1)[C@@H](C)O)[C@@H](C)O)C(C)C)C(=O)N[C@@H](C)C(=O)N[C@@H](Cc1c[nH]c2ccccc12)C(=O)N[C@@H](CC(C)C)C(=O)N[C@H](C(=O)N[C@@H](CCCNC(=N)N)C(=O)NCC(=O)N[C@@H](CCCNC(=N)N)C(=O)N[C@@H](CCCCNC(=O)[C@@H](N)CCCCNC(=O)[C@@H](N)CCCCNC(=O)CC[C@H](NC(=O)CCCCCCCCCCOc1ccc(C(=O)O)cc1)C(=O)O)C(=O)O)C(C)C` [Example 20, N^ε26-[(2S)-2-amino-6-[[(2S)-2-amino-6-[[(4S)-4-carboxy-4-[11-(4-carboxyphenoxy)undecanoylamino]butanoyl]amino]hexanoyl]amino]hexanoyl], N^ε37-[(2S)-2-amino-6-[[(2S)-2-amino-6-[[(4S)-4-carboxy-4-[11-(4-carboxyphenoxy)undecanoylamino]butanoyl]amino]hexanoyl]amino]hexanoyl]-[Aib^8,Arg^34,Lys^37]-GLP-1-(7-37)-peptide], the half-life is 59 h in data set [1] and 14 h in data set [2]. The same compound had a pEC50 on human GLP-1 receptor of 10.15.
Consider `CC[C@H](C)[C@H](NC(=O)[C@H](Cc1ccccc1)NC(=O)[C@H](CCC(=O)O)NC(=O)[C@H](CCCCNC(=O)[C@@H](N)CCCCNC(=O)COCCOCCNC(=O)COCCOCCNC(=O)CC[C@H](NC(=O)CCCCCCCCCOc1ccc(C(=O)O)cc1)C(=O)O)NC(=O)[C@H](C)NC(=O)[C@H](C)NC(=O)[C@H](CCC(N)=O)NC(=O)[C@H](CCC(=O)O)NC(=O)[C@H](CCC(=O)O)NC(=O)[C@H](CC(C)C)NC(=O)[C@H](Cc1ccc(O)cc1)NC(=O)[C@H](CO)NC(=O)[C@H](CO)NC(=O)[C@@H](NC(=O)[C@H](CC(=O)O)NC(=O)[C@H](CO)NC(=O)[C@@H](NC(=O)[C@H](Cc1ccccc1)NC(=O)[C@@H](NC(=O)CNC(=O)[C@H](CCC(=O)O)NC(=O)C(C)(C)NC(=O)[C@@H](N)Cc1c[nH]cn1)[C@@H](C)O)[C@@H](C)O)C(C)C)C(=O)N[C@@H](C)C(=O)N[C@@H](Cc1c[nH]c2ccccc12)C(=O)N[C@@H](CC(C)C)C(=O)N[C@H](C(=O)N[C@@H](CCC(N)=O)C(=O)NCC(=O)N[C@@H](CCCNC(=N)N)C(=O)N[C@@H](CCCCNC(=O)[C@@H](N)CCCCNC(=O)COCCOCCNC(=O)COCCOCCNC(=O)CC[C@H](NC(=O)CCCCCCCCCOc1ccc(C(=O)O)cc1)C(=O)O)C(=O)O)C(C)C` [Example 18] (H-H[Aib]EGTFTSDVSSYLEEQAAK([εLys-AEEA-AEEA-γGlu-Decanoyl(10-(4-HOOC-PhO))])EFIAWLVQGRK([εLys-AEEA-AEEA-γGlu-Decanoyl(10-(4-HOOC-PhO))])-OH; N-terminus and C-terminus assumed), for which the half-life is 47 h in data set [1] and 20 h in data set [2]. Besides, on human GLP-1 receptor, the pEC50 was 10.12.
For `CC[C@H](C)[C@H](NC(=O)[C@H](Cc1ccccc1)NC(=O)[C@H](CCC(=O)O)NC(=O)[C@H](CCCCNC(=O)[C@@H](N)CCCCNC(=O)[C@@H](N)CCCCNC(=O)CC[C@H](NC(=O)CCCCCCCCCOc1ccc(C(=O)O)cc1)C(=O)O)NC(=O)[C@H](C)NC(=O)[C@H](C)NC(=O)[C@H](CCC(N)=O)NC(=O)CNC(=O)[C@H](CCC(=O)O)NC(=O)[C@H](CC(C)C)NC(=O)[C@H](Cc1ccc(O)cc1)NC(=O)[C@H](CO)NC(=O)[C@H](CO)NC(=O)[C@@H](NC(=O)[C@H](CC(=O)O)NC(=O)[C@H](CO)NC(=O)[C@@H](NC(=O)[C@H](Cc1ccccc1)NC(=O)[C@@H](NC(=O)CNC(=O)[C@H](CCC(=O)O)NC(=O)C(C)(C)NC(=O)[C@@H](N)Cc1c[nH]cn1)[C@@H](C)O)[C@@H](C)O)C(C)C)C(=O)N[C@@H](C)C(=O)N[C@@H](Cc1c[nH]c2ccccc12)C(=O)N[C@@H](CC(C)C)C(=O)N[C@H](C(=O)N[C@@H](CCCNC(=N)N)C(=O)NCC(=O)N[C@@H](CCCNC(=N)N)C(=O)N[C@@H](CCCCNC(=O)[C@@H](N)CCCCNC(=O)[C@@H](N)CCCCNC(=O)CC[C@H](NC(=O)CCCCCCCCCOc1ccc(C(=O)O)cc1)C(=O)O)C(=O)O)C(C)C` [Example 1, N^ε26-[(2S)-2-amino-6-[[(2S)-2-amino-6-[[(4S)-4-carboxy-4-[10-(4-carboxyphenoxy)decanoylamino]butanoyl]amino]hexanoyl]amino]hexanoyl], N^ε37-[(2S)-2-amino-6-[[(2S)-2-amino-6-[[(4S)-4-carboxy-4-[10-(4-carboxyphenoxy)decanoylamino]butanoyl]amino]hexanoyl]amino]hexanoyl]-[Aib^8, Arg^34,Lys^37]-GLP-1-(7-37)-peptide], the half-life in data set [2] was 14 h. The pEC50 on human GLP-1 receptor was 10.23.
